The text below walks through data of patent publication US20030187058A1, “Combination of lipoic acids and conjugated acids for treating diabetic disorders” (priority 2000, published 2003).

One test has as its system diabetic neuropathy. The following applies: intravenous 600 mg a day for 3 weeks; cited from earlier work.
Another test relates to NIDDM patients. The following applies: 800 mg each day for 4 months; cited from earlier work.
The next test relates to diabetic polyneuropathy. The following applies: 3-week intravenous and subsequent 6-months oral treatment, cited from earlier work.
Test [1] deals with patients with type II diabetes. The following applies: single parenteral dose of 1,000 mg; cited from earlier work.
The test system of a further test is skeletal muscle. Briefly: Insulin-induced skeletal muscle glucose transport activity in treated obese Zucker rats (summary statement). The following applies: each substance alone. It is filed as in vivo, obese Zucker rat (fa/fa). From the text:
(§1) The obese Zucker rat (fa/fa) is an animal model of insulin resistance, glucose intolerance, hyperinsulinaemia and dyslipidaemia. This model was used to determine the effect of four different forms of diet (control, R-lipoic acid (R—LA), conjugated linoleic acid (CLA) and a combination of conjugated linoleic acid and R-lipoic acid) on insulin-induced skeletal muscle glucose transport activity and on glucose tolerance.
The test animals were maintained on regular chow and water ad libitum. At the age of 9-10 weeks, the animals were assigned to either a vehicle-treated control group or to intervention groups receiving either R-lipoic acid (10 mg/kg bodyweight), conjugated linoleic acid (c9,t11:t10,c12; 50:50; 0.3 g/kg bodyweight) or both. R-lipoic acid was administered by intraperitoneal injection; conjugated linoleic acid by gavage. The treatment period lasted for 18-20 days.
24 hours after the final treatment and having been restricted to 4 g chow during the previous 13 hours, animals were deeply anaesthetised with pentobarbital sodium (50 mg/kg ip). Right soleus muscles and both right and left epitrochlearis muscles were surgically removed and prepared for incubation in vitro. […] Glucose transport activity was then determined as described by Hendriksen and Halseth (J Appl Physiol 1994; 76: 1862-1867).

In another test the test system is soleus muscle. Briefly: 2-Deoxyglucose uptake (glucose transport activity) in soleus muscle removed from treated obese Zucker rats, incubated in vitro. The following applies: obese Zucker rats treated 18-20 days; for 2-Deoxyglucose level, Increase: insulin-stimulated minus basal; for 2-Deoxyglucose level, + Insulin [5 mU/ml] / 2-Deoxyglucose level, Basal: R-LA 10 mg/kg ip, CLA 0.3 mg/kg (table) by gavage; for 2-Deoxyglucose level, + Insulin [5 mU/ml]: insulin 5 mU/ml in vitro; for 2-Deoxyglucose level, Basal: no insulin. The format is in vivo, obese Zucker rat (fa/fa).
Text: as §1
(§2) The test animals were maintained on regular chow and water ad libitum. […] R-lipoic acid was administered by intraperitoneal injection; conjugated linoleic acid by gavage. The treatment period lasted for 18-20 days.
(§3) 24 hours after the final treatment and having been restricted to 4 g chow during the previous 13 hours, animals were deeply anaesthetised with pentobarbital sodium (50 mg/kg ip). Right soleus muscles and both right and left epitrochlearis muscles were surgically removed and prepared for incubation in vitro. Muscles were prepared as described by Peth J A et al. (Am J Physiol Regulatory Integrative Comp Physiol 2000; 278: R453-R459). Glucose transport activity was then determined as described by Hendriksen and Halseth (J Appl Physiol 1994; 76: 1862-1867).

For a further test, the system named is epitrochlearis muscle. The test is described as follows: 2-Deoxyglucose uptake (glucose transport activity) in epitrochlearis muscle removed from treated obese Zucker rats, incubated in vitro. It is filed as in vivo, obese Zucker rat (fa/fa). The following applies: obese Zucker rats treated 18-20 days; for 2-Deoxyglucose level, Increase: insulin-stimulated minus basal; for 2-Deoxyglucose level, + Insulin [5 mU/ml] / 2-Deoxyglucose level, Basal: R-LA 10 mg/kg ip, CLA 0.3 mg/kg (table) by gavage; for 2-Deoxyglucose level, + Insulin [5 mU/ml]: insulin 5 mU/ml in vitro; for 2-Deoxyglucose level, Basal: no insulin.
Text: as §1, §2, §3

Take `O=C(O)CCCCC1CCSS1` (stereo not shown) [lipoic acid, 5-(1,2-dithiolan-3-yl)valeric acid]: the symptomatic complaints result in the test on diabetic neuropathy is “decreased”. In addition, in the test with NIDDM patients, the cardiovascular autonomic symptoms entry is reported as “no significant change”. In addition, the neuropathic deficits result with diabetic polyneuropathy was “appeared to have a beneficial effect”. For the same compound, the neuropathic symptoms entry in the test on diabetic polyneuropathy (versus placebo) is listed as “no effect on neuropathic symptoms distinguishable from placebo”. Also, the glucose utilization result in test [1] is given as “distinct improvement”.
Regarding conjugated linoleic acid [CLA], the “skeletal muscle glucose transport activity following stimulation by insulin, beyond the increase in the vehicle-treated control group” value with skeletal muscle is “Neither R-lipoic acid nor conjugated linoleic acid alone increased”. Moreover, in the test with soleus muscle, the “2-Deoxyglucose level, Increase” value is 261 +/− 13 pmol/mg muscle; the “2-Deoxyglucose level, + Insulin [5 mU/ml]” value is given as 492 +/− 9 pmol/mg muscle; the “2-Deoxyglucose level, Basal” value was 231 +/− 6 pmol/mg muscle. Further, in the test on epitrochlearis muscle, the “2-Deoxyglucose level, Increase” value is 123 +/− 13 pmol/mg muscle; the “2-Deoxyglucose level, + Insulin [5 mU/ml]” value is reported as 248 +/− 14 pmol/mg muscle; the “2-Deoxyglucose level, Basal” value is 126 +/− 4 pmol/mg muscle.
Take `O=C(O)CCCC[C@@H]1CCSS1` [R-LA, (R)-5-(1,2-dithiolan-3-yl)-valeric acid]: the “skeletal muscle glucose transport activity following stimulation by insulin, beyond the increase in the vehicle-treated control group” value in the test with skeletal muscle is “Neither R-lipoic acid nor conjugated linoleic acid alone increased”. Also, in the test with soleus muscle, the “2-Deoxyglucose level, Increase” value was 258 +/− 16 pmol/mg muscle; the “2-Deoxyglucose level, + Insulin [5 mU/ml]” value was 481 +/− 19 pmol/mg muscle; the “2-Deoxyglucose level, Basal” value is given as 224 +/− 7 pmol/mg muscle. For the same compound, in the test on epitrochlearis muscle, the “2-Deoxyglucose level, Increase” value is reported as 102 +/− 11 pmol/mg muscle; the “2-Deoxyglucose level, + Insulin [5 mU/ml]” value is 225 +/− 8 pmol/mg muscle; the “2-Deoxyglucose level, Basal” value is 123 +/− 3 pmol/mg muscle.
